# According to patent publication US20260248127A1, “IMPROVED PESTICIDAL COMPOSITIONS AND PEST CONTROL METHODS” (priority 2022, published 2026):
# Where “and” joins values, the source holds several entries; their conditions need not be identical. Equal entries are not always repeated. Where two headings read alike, the source gives them in different places.
# Key:
# [1] = test system: Aedes aegypti LVP (SP-susceptible) strain L3 larvae; assay: Larval dose-mortality (dose response) assay, LVP strain; type: in vivo; details: for LC50: Aedes aegypti, read-out: Lethal Concentration (LC50)
# Description: (§1) Results represent n=3 biological replicates.
# [2] = test system: Aedes aegypti PRS (SP-resistant) strain L3 larvae; assay: Larval dose-mortality (dose response) assay, PRS strain; type: in vivo; details: for LC50: Aedes aegypti, PRS L3 larvae, read-out: Lethal Concentration (LC50)
# Description: as §1
# [3] = test system: Aedes aegypti LVP (SP-susceptible) strain 3-5 day old adults; assay: Adult dose-mortality assay, LVP strain; type: in vivo; details: for LC50: Aedes aegypti, read-out: Lethal Dose (LC50)
# [4] = test system: Aedes aegypti PRS (SP-resistant) strain 3-5 day old adults; assay: Adult dose-mortality assay, PRS strain; type: in vivo; details: for LC50: Aedes aegypti, PRS adults
# [5] = test system: Aedes aegypti LVP (SP-susceptible) strain L3 larvae; assay: Larval mortality-time assay, LVP strain; type: in vivo; details: table row says LC50 LVP dose, text LC90 dose
# Description: Results represent n=3 biological replicates. Lethal time (LT50) of post topical exposure to a Lethal Concentration (LC90) dose is shown in comparison to SP and the technical grade synthetic pyrethroid, Deltamethrin.
# [6] = test system: Aedes aegypti LVP (SP-susceptible) strain L3 larvae; assay: Qcide combinations larval dose-mortality assay, LVP strain; type: in vivo
# Description: (§2) Results represent n=3 biological replicates. […] The Synergistic Ratio (SR) and P-value are shown. Mosquito mortality is shown for A and B: LVP at 24 and 48 hours. […] Mosquito mortality is shown for A and B: PRS at 24 and 48 hours.
# (§3) Results represent n=3 biological replicates. […] The Synergistic Ratio (SR) and P-value are shown.
# [7] = test system: Aedes aegypti PRS (SP-resistant) strain L3 larvae; assay: Qcide combinations larval dose-mortality assay, PRS strain; type: in vivo
# Description: as §2, §3
# [8] = test system: Musca domestica CAR21 (insecticide susceptible) strain; assay: Topical synergist 24-hour mortality assay, CAR21 house flies; type: in vivo; details: for % Dead / Alive / Dead: CAR21, topical doses; for % Dead: 24-hour mortality; for Alive / Dead: number of flies, pooled of 4 replicates, 24-hour; for maximum sublethal dose: for both strains (CAR21, KS17)
# [9] = test system: Musca domestica KS17 (insecticide resistant) strain; assay: Topical synergist 24-hour mortality assay, KS17 house flies; type: in vivo; details: topical doses; for % Dead: 24-hour mortality; for Alive / Dead: number of flies, pooled of 4 replicates, 24-hour
# [10] = test system: Aedes aegypti LVP (SP-susceptible) strain L3 larvae; details: data from a previous study, cited from earlier work
# [11] = test system: Aedes aegypti PRS (SP-resistant) strain L3 larvae; details: data from a previous study, cited from earlier work
# [12] = 24 h, Permethrin alone (Table 4)
# [13] = 24 h, Permethrin alone (Table 5)
# [14] = 48 h, Permethrin alone (Table 4)
# [15] = 48 h, Permethrin alone (Table 5)
structure (smiles),measurement,setting,value
"CC1(C)C(C=C(Cl)Cl)C1C(=O)OCc1cccc(Oc2ccccc2)c1 (stereo not drawn) [Permethrin, permethrin]",Lethal Concentration (LC50),[1]; 24 hours post exposure,0.0259 µg/mL
same,LC50,"[1]; 24 h, 24 hours post exposure",0.026 µg/mL
same,LC50,"[1]; 48 h, 48 hours post exposure",0.0252 µg/mL
same,LC50,"[1]; 72 h, 72 hours post exposure",0.0214 µg/mL
same,LC50,[2]; 24 hours post exposure,0.7 µg/mL
same,LC50,[2]; 48 hours post exposure,0.6 µg/mL
same,LC50,[2]; 72 hours post exposure,0.6 µg/mL
same,resistance of PRS strain larvae as compared to LVP strain,"[2]; L3 larvae, under assay conditions",approx. 25 fold
same,Lethal Dose (LC50),[3]; 24 hours post exposure,0.5429 µg/mL
same,LC50,"[3]; 24 h, 24 hours post exposure",0.543 µg/mL
same,LC50,"[3]; 48 h, 48 hours post exposure",0.505 µg/mL
same,LC50,"[4]; 24 hours post exposure, read-out: Lethal Dose (LC50)",130 µg/mL
same,LC50,"[4]; 24 hours, read-out: LC50",130 µg/mL
same,LC50,"[4]; 48 hours post exposure, read-out: Lethal Dose (LC50)",120 µg/mL
same,resistance of PRS strain adults as compared to LVP,"[4]; adults, under assay conditions",approximately 240 fold
same,Lethal Time (LT50),[5],5.5 h and 5.6 h
same,LC50,[6]; [12],0.0205 µg/mL
same,LC50,[6]; [13],0.0237 µg/mL
same,LC50,[6]; [14],0.0181 µg/mL
same,LC50,[6]; [15],0.0217 µg/mL
same,LC50,[7]; [12],2.1 µg/mL
same,LC50,[7]; [13],1.21 µg/mL
same,LC50,[7]; [14],1.3 µg/mL
same,LC50,[7]; [15],0.87 µg/mL
same,% Dead,[8],7.5%
same,LD50 dose,"[8]; CAR21 strain, topical",12 ng/fly
same,Alive,[8],74
same,Dead,[8],6
same,% Dead,[9],3.8%
same,Alive,[9],77
same,Dead,[9],3
"CC(C)C(=O)C1C(=O)C(C)(C)C(=O)C(C)(C)C1=O [Flavesone, flavesone]",% Dead,[8],0.0%
same,maximum sublethal dose,[8]; topical,0.3 % v/v
same,Alive,[8],80
same,Dead,[8],0
same,Lethal Concentration (LC50),"[10]; 24 hours, listed as flavesone",41 µg/mL
same,Lethal Concentration (LC50),[10]; 24 hours,40.9 µg/mL
same,Lethal Concentration (LC50),[10]; 48 hours,40.5 µg/mL
same,Lethal Concentration (LC50),[10]; 72 hours,39.7 µg/mL
same,Lethal Concentration (LC50),"[11]; 24 hours, listed as flavesone",39 µg/mL
same,Lethal Concentration (LC50),[11]; 24 hours,38.7 µg/mL
same,Lethal Concentration (LC50),[11]; 48 hours,37.1 µg/mL
same,Lethal Concentration (LC50),[11]; 72 hours,37.1 µg/mL
CC1(C)[C@H](C(=O)O[C@H](C#N)c2cccc(Oc3ccccc3)c2)[C@@H]1C=C(Br)Br [Deltamethrin],Lethal Time (LT50),[5],5.6 h and 5.5 h
"CCCCOCCOCCOCc1cc2c(cc1CCC)OCO2 [PBO, piperonyl butoxide]",% Dead,[8],0.0%
same,maximum sublethal dose,[8]; topical,10 μg/fly
same,Alive,[8],80
same,Dead,[8],0
same,% Dead,[9],3.9%
same,Alive,[9],74
same,Dead,[9],3
